Measurements from US20020051799A1, “Glucosylated hydroxystilbene compounds for treating skin conditions” (priority 2000, published 2002).

Key:
[1] = glucosylated form compared with the non glucosylated form; cited from earlier work
tyrosinase = test: Spectrophotometric tyrosinase assay (255 nm); assay type: biochemical
Procedure: A glucosylated resveratrol (4′,5-dihydroxystilbene-3-O-beta-D-glucoside) (APIN Chemicals N17555p, 29 D Milton Park, Abingdon, Oxon, United Kingdom) was incubated in the presence of an extract of stratum corneum or of a homogenate of hair follicles that had been removed by plucking. Under precise experimental conditions, the affinity of the resveratrol for tyrosinase was higher than for glucosylated resveratrol. This property was advantageously employed to measure the resveratrol liberated in the presence of tyrinosase, determined at 255 nm. This method was adapted from the method described by A. A. Calderon: “A Spectrophotometric Assay for Quantitative Analysis of the Oxidation of 4-hydroxystilbene by Peroxidase-H2O2 Systems: J. of Biochem. and Biophys. (1990) Methods 20: 171-180.
A 200 μl aliquot was removed and 10 μl of tyronisase was added.
Two independent measurements were carried out by determining the optical density at 255 nm over 10 minutes and calculating the slope of the graph (60 to 300 seconds).
Under the same conditions, a calibration curve was produced using resveratrol (1; 2.5; 5; 7.5 and 10 μl) in a volume adjusted to […].

| affinity for tyrosinase (tyrosinase; compared with glucosylated resveratrol, under precise experimental conditions) | concentrations at which resveratrol action was demonstrated (tyrosinase; in vitro tests) | SMILES | antioxidant activity [1] |
| --- | --- | --- | --- |
| – | – | OC[C@H]1O[C@@H](Oc2cc(O)cc(/C=C/c3ccc(O)cc3)c2)[C@H](O)[C@@H](O)[C@@H]1O [glucosylated resveratrol, 4′,5-dihydroxystilbene-3-O-beta-D-glucoside] | far inferior |
| higher | less than 10 μm | Oc1ccc(C=Cc2cc(O)cc(O)c2)cc1 [resveratrol, 3,4′,5-trihydroxystilbene] | – |
